Laboratory results taken from US20120195847A1 (Nektar Therapeutics, priority 2008, published 2012).

Experiments:
[1] = Stability of biphalin during pre-incubation under physiological-like conditions; format: physicochemical; conditions: 72 hour incubation in assay buffer, pH 7.5 at 37° C.
mice [2] = conditions: intrathecally (i.t.); cited from earlier work
mice [3] = conditions: intracerebroventricular (i.c.v); cited from earlier work
human δ opioid receptor = target: T1, human δ opioid receptor (Homo sapiens, UniProt P41143); assay: Radioligand competition binding assay, δ opioid receptor ([3H]DPDPE); conditions: 1 μM; pre-incubated 20 hours
T1 construct: expressed in transfected cells
T1 sequence (P41143 whole entry): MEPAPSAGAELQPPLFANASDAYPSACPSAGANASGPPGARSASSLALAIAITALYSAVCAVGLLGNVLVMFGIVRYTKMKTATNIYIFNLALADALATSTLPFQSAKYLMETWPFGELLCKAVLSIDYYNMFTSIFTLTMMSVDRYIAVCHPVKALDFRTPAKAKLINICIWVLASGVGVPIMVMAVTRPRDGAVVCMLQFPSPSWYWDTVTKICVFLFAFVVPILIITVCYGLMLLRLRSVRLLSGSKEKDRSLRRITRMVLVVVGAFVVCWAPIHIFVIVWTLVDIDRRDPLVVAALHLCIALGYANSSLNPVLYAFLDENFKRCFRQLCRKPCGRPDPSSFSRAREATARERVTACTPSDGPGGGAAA
Protocol: Competition binding experiments were conducted by incubating membrane protein to equilibrium in triplicate in the presence of a fixed concentration of radioligand and increasing concentrations (0.1 nM to 10 μM) of test compound in 100 μL final volume. The radioligands used were specific for each receptor type, and the assay conditions are described in Table BIP6.3. Following incubations, the membranes were rapidly filtered through GF/B filter plate (presoaked with 0.5% polyethyleneimine), washed four times with cold 50 mM Tris-HCl, pH 7.5, and the bound radioactivity was then measured. Non-specific binding was measured in the presence of excess naloxone (100 μM); this value was subtracted from the total binding to yield the specific binding at each test concentration.
The test compounds were stored under acidic condition to stabilize the PEG conjugation.
Ki (affinity of test compound) was obtained using the Cheng Prusoff correction using experimental Kd (affinity of radioligand) values that were previously determined under these assay conditions.

[4] = Stability of the conjugate during purification; format: physicochemical; conditions: reaction mixture, acidic pH values

Molecule	stability following incubation [1]	potency compared with morphine, tail flick testing (mice [2]) [fold]	potency in eliciting antinociception compared with morphine (mice [3]) [fold]	inhibition of specific binding at the highest test concentration (human δ opioid receptor) [%]	stability of the conjugate [4]
C[C@@H](NC(=O)[C@@H](N)Cc1ccc(O)cc1)C(=O)NCC(=O)N[C@@H](Cc1ccccc1)C(=O)NNC(=O)[C@H](Cc1ccccc1)NC(=O)CNC(=O)[C@@H](C)NC(=O)[C@@H](N)Cc1ccc(O)cc1 [Biphalin, Tyr-D-Ala-Gly-Phe-NH-NH-Phe-Gly-D-Ala-Tyr]	remained stable	1000	257	–	–
Di-mPEG-SBC-30K-biphalin: releasable di-conjugate of biphalin with N-m-PEG-Benzamide-p-Succinimidyl Carbonate (m-PEG-SBC-30K); not purified	–	–	–	≤ 50	instability of the conjugate, even at acidic pH values
